Experimental data from US20050266577A1, “Ultrafiltration device for drug binding studies” (Millipore Corporation, priority 2002, published 2005).
Like-named read-outs stand apart in the source and are kept apart here.

Legend:
[1] = Non-specific binding, second control plate with ultrafiltrate diluent added; details: 10 nanomolar CE in phosphate buffered saline
Protocol: Each membrane was tested in triplicate. Each Microcon® device was placed in the appropriately labeled retentate/filtrate vial. If the membrane to be tested needed to be pre-wetted before proceeding with this process, one needed to be sure that the membrane received a final rinse with PBS prior to testing. 200 µl of analyte solution was added to each Microcon® device and spun to dryness (20-30 minutes) in a microcentrifuge (14000-×g). The membranes were rinsed by adding 25 µl to each device and spun in the microcentrifuge (14000-×g) for 10 minutes.
To determine the amount of non-specific binding to the membrane, the collar and gasket were removed and the membrane placed in a glass scintillation vial. Three ml of scintillation cocktail was added to each vial. A 20 µl aliquot of the original solution was added to 3 ml of scintillation cocktail for reference. Radioactivity (in DPM) was determined by liquid scintillation counting using 1 minute counting periods and a stored quench curve as described by the equipment manufacturer.
The ratio of radioactivity found on the membrane compared to the total amount of radioactivity added was reported as a percentage and was used to assess CE NSB of the membrane being tested.

[2] = 10 nanomolar CE concentration in phosphate buffered saline
Text: Microcon® Device Preparation:
The membrane to be tested was cut with the appropriate die cutter for the diameter of the device. The assembly consisted of placing the membrane on the support followed by addition of a gasket.
The collar is then placed on top of the assembly and sealed at a pressure varying from 65 to 100 psi.
Radioactive Analyte Preparation:
In order to prepare the analyte we used the following equation: [Concentration of Analyte]×[Volume needed for the experiment in microliter]×[Specific activity (Ci/mol)]×[1/Concentration (Ci/µl)].
The required volume of analyte was added to an appropriate volume of PBS. 200 µl of this preparation was used per sample.
Each membrane was tested in triplicate.
A first control plate, a Multiscreen® 96 well plate containing a heat sealed UPE (ultrahigh molecular weight polyethylene) composite cellulosic UF membrane, was used in a binding study.

[3] = No support, table after second control plate (ultrafiltrate diluent)
[4] = Support: UPE composite, second control plate, ultrafiltrate diluent added

Row | SMILES | % Non Specific Binding [1, 3] [%] | % Non Specific Binding [1, 4] [%] | % Non Specific Binding ([2]; No support) [%] | % Non Specific Binding ([2]; Support: Non-woven 1) [%] | % Non Specific Binding ([2]; Support: Non-woven 2) [%] | % Non Specific Binding ([2]; Support: UPE composite) [%]
1 | C[C@]12CC[C@H]3[C@@H](CCC4=CC(=O)CC[C@@]43C)[C@@H]1CC[C@@H]2O [testosterone] | 3 | 80 | 4 | 1 | 1 | 101
2 | OC[C@@H](O)[C@@H](O)[C@H](O)[C@H](O)CO [mannitol] | 1 | 2 | 2 | 2 | 1 | 1
3 | CC(C)NCC(O)COc1cccc2ccccc12 (centres unmarked) [proprananol] | – | – | 4 | 0 | 2 | 61
4 | C[C@H]1O[C@@H](O[C@H]2[C@@H](O)C[C@H](O[C@H]3[C@@H](O)C[C@H](O[C@H]4CC[C@@]5(C)[C@H](CC[C@@H]6[C@@H]5C[C@@H](O)[C@]5(C)[C@@H](C7=CC(=O)OC7)CC[C@]65O)C4)O[C@@H]3C)O[C@@H]2C)C[C@H](O)[C@@H]1O [digoxin] | 3 | 92 | 3 | 3 | 2 | 47
5 | CN(Cc1cnc2nc(N)nc(N)c2n1)c1ccc(C(=O)N[C@@H](CCC(=O)O)C(=O)O)cc1 [methotrexate] | – | – | 4 | 0 | 3 | 16
